Patent publication US9266817B2, “Catecholamine derivatives for obesity and neurological disorders” (EMORY UNIVERSITY, priority 2009, dated 2016)
“Also recorded” adds a separate entry of the source.

Key:
mice = test: Forced swim test; type: in vivo; details: for Swimming immobility: 20 mg/kg intraperitoneally, adult male mice; for Immobility time after 1NMPP1 treatment: TrkB F616A knockin mice, 1NMPP1 pretreatment
Procedure: Accumulating evidence supports that BDNF plays an essential role in mediating antidepressants' therapeutic effects. Infusion of exogenous BDNF into hippocampus or brain stem has antidepressant-like behavioral effect. A forced swim test is broadly used for screening of potential antidepressant drugs and is widely used to measure antidepressant activity. To explore whether Compound I-11 (ADPP) and Compound I-8 (DDAP) have antidepressant effects like BDNF, forced swim tests were conducted. Adult male mice (2-3 months old, n=8) were randomly submitted, without a pre-swim, to a forced swim test of 6 minutes with immobility recorded in the last 4 minutes. Mice were injected intraperitoneally with saline, Compound I-11 (20 mg/kg), or Compound I-8 (20 mg/kg). The mice were allowed to adapt to the test room for 2 days, and the mice were placed in a clear glass cylinder with a diameter of 16 cm, half-filled with clear water at 24° C.
To assess whether the behavior responses caused by catecholamine derivatives is mediated by TrkB receptor, TrkB F616A knockin mice were utilized. The mice were subjected to saline or 1NMPP1 inhibitor pretreatment.

TrkB F616A [1] = biological target: T1, TrkB F616A (Mus musculus, UniProt P15209, F616A); test: TrkB phosphorylation in TrkB F616A or TrkA F592A cortical neurons pretreated with K252a or 1NMPP1; type: cell-based, mice; details: primary TrkB F616A cortical neurons, 100 nM inhibitor 30 min, 500 nM compound
T1 construct: endogenous in cells; host or cells: primary cortical neurons from TrkB F616A knock-in mice
T1 sequence (P15209 32-821 F616A): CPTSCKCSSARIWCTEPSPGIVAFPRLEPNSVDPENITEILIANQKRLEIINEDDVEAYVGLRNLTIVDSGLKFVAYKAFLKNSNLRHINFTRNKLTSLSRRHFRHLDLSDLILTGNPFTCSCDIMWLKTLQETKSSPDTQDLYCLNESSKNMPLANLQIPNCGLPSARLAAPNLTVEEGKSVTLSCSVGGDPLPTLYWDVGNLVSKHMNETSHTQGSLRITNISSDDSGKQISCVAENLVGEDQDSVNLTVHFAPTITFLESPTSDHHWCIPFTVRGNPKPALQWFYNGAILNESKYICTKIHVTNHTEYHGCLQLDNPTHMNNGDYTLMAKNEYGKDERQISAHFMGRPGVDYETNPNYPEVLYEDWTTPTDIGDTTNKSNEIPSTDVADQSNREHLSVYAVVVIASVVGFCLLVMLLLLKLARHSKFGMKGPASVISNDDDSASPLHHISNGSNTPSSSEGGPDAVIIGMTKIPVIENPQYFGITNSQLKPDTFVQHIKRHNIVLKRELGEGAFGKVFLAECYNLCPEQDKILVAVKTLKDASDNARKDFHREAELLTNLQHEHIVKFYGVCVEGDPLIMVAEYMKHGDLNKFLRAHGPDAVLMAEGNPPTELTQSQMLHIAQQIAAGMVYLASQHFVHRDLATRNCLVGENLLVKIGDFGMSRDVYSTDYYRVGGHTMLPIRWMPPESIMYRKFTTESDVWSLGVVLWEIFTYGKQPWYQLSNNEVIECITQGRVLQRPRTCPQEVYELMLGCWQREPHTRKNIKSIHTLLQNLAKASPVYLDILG
Procedure: (§1) TrkB F616A mice were pretreated with 1NMPP1 (50 μM) before L-DOPA or DOPS administration.
(§2) On day 7, the primary cortical neurons were pretreated with 100 nM K252a or 1NMPP1 for 30 min, followed by 500 nM ADPP and DDAP. Cell lysates were analyzed by Western blotting.

TrkB F616A knockin mice = test: Kainic acid-induced neuronal apoptosis in TrkB F616A knockin mice (immunoblotting and Caspase-3 ELISA); type: in vivo; details: 50 mg/kg orally 2 hours before KA 20 mg/kg
Procedure: To determine whether Compound I-11 (ADPP) and Compound I-8 (DDAP) protect neurons from KA-induced apoptosis, TrkB F616A knockin mice were pretreated with inhibitor 1NMPP1 (16.6 ng/kg) 2 days before the experiment. Compound I-8 (DDAP) or Compound I-11 (ADPP) (50 mg/kg) was orally injected into the mice 2 hours before kainic acid (KA) administration (20 mg/kg). Brain lysates were analyzed by immunoblotting and Caspase-3 ELISA. […] The extent of the protective effect correlates with TrkB activation status by these compounds. Active Caspase-3 ELISA correlated with the immunoblotting results (FIG. 28B, right panel).

TrkB [2] = biological target: T2, TrkB (Rattus norvegicus, UniProt Q63604); test: Screening of catecholamine derivatives for TrkB activation in primary cortical neurons (anti-p-TrkB-Y-816 immunoblot); type: cell-based; details: 500 nM, 30 min
T2 construct: endogenous in cells; host or cells: primary rat cortical and hippocampal neurons
T2 sequence (Q63604 32-821): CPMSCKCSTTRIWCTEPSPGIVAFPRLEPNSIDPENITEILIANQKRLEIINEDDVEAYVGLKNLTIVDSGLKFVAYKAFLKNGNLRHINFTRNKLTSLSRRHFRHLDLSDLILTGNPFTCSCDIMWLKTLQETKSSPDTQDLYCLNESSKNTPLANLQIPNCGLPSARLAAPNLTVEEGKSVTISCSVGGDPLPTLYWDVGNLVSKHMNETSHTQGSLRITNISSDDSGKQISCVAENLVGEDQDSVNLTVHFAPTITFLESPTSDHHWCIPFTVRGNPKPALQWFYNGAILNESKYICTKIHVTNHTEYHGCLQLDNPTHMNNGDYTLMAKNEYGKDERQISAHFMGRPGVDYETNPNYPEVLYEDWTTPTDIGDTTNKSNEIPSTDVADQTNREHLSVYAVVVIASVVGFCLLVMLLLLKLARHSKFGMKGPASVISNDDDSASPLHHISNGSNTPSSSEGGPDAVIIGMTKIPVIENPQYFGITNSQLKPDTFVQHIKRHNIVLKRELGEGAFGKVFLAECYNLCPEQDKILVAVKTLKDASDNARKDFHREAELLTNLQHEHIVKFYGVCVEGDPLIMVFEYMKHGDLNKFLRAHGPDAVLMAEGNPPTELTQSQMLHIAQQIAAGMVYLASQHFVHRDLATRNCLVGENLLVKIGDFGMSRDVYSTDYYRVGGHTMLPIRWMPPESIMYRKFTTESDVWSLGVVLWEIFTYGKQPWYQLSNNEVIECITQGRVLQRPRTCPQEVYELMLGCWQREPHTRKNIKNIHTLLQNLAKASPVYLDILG
Procedure: Catecholamines can directly bind to the kinase domain of the TrkB receptor and activate it. However, the catecholamines are not able to cross through the blood brain barrier. […] Cortical neurons (7 DIV cortical neurons from 18 day old Sprague Dawley rat embryos) were treated with 500 nM of the selected compound for 30 min and cell lysates were prepared. The cell lysates ([…]) were analyzed for TrkB activation by immunoblotting with anti-p-TrkB-Y-816 antibody.
Catecholamine derivatives as described herein, including Compound I-2, Compound I-5, Compound I-7, Compound I-8, Compound I-9, Compound I-10, Compound I-11, Compound I-14, Compound I-15, Compound I-17, Compound I-18, and isoproterenol, were screened for TrkB activation in primary cortical neurons. Cortical neurons (7 DIV cortical neurons from 18 day old Sprague Dawley rat embryos) were treated with 500 nM of the selected compound for 30 min and cell lysates were prepared. The cell lysates ([…]) were analyzed for TrkB activation by immunoblotting with anti-p-TrkB-Y-816 antibody.

TrkB [3] = test: TrkB activation in mouse brain after administration of catecholamine derivatives (anti-p-TrkB-Y-816 immunoblot); type: in vivo; details: for Time at which TrkB activity peaked: 50 mg/kg orally; for TrkB activation in the brains of the mice: 50 mg/kg orally (in saline), C57BL/6J mice; for Oral bioavailability: mice; for Minimal dosage required to activate TrkB: orally, mice sacrificed after 4 hours; for TrkB activation in mouse brains: via drinking water or intraperitoneal injection
Procedure: To explore whether these compounds could stimulate TrkB in vivo, 50 mg/kg of Compound I-11, Compound I-8, and Compound I-2 (2-(methylamino)-3′,4′-dihydroxy-acetophenone) were each orally administered (in saline) to 2-month-old C57BL/6J mice. The mice were sacrificed at different time points and TrkB activation in the brains of the mice was monitored by immunoblotting with anti-p-TrkB-Y-816 antibody.
To determine the minimal required dosages for Compound I-11 and Compound I-8, different doses of the compounds were each orally administered to mice. The mice were sacrificed after 4 hours, and the brain lysates were analyzed by immunoblotting with anti-p-TrkB-Y-816 antibody.
To search for orally bioactive catecholamines, catecholamine derivatives described herein were screened using primary neuronal cultures. The in vitro active compounds, Compounds I-8 and I-11, were adminstered into two to three month old C57BL/6J mice orally, intraperitoneally, and in drinking water. For oral administration, the mice were administered 0 mg (control), 5 mg, 10 mg, 20 mg, or 50 mg of Compound I-8 or Compound I-11. After 4 hours, TrkB phosphorylation in mouse brain was monitored by analyzing the brain lysates using immunoblotting with anti-p-TrkB-Y-816 antibody. The ratios of p-TrK/total TrkB were quantified (FIG. 27A). For intraperitoneal administration, 50 mg/kg of Compound I-8 or Compound I-11 were intraperitoneally injected into the mice. The brain lysates were prepared at different times (0 hr, 1 hr, 2 hr, 4 hr, and 8 hr) and were analyzed by immunoblotting with anti-p-TrkB-Y-816 antibody (FIG. 27B). Compound I-8 and Compound I-11 were dissolved in drinking water and given to mice. After 24 h, the brain lysates were prepared and analyzed by immunoblotting with anti-p-TrkB-Y-816 antibody (FIG. 27C). […] Therefore, these compounds are useful in treating various neurological or neuropsychiatric diseases as described herein.

TrkB F616A [4] = biological target: T3, TrkB F616A (Mus musculus, UniProt P15209); test: TrkB phosphorylation in TrkB F616A or TrkA F592A cortical neurons pretreated with K252a or 1NMPP1; type: cell-based, mice
T3 construct: endogenous in cells; host or cells: primary cortical neurons from TrkB F616A knock-in mice
T3 sequence (P15209 32-821 F616A): as the sequence (P15209 32-821 F616A) above
Procedure: as §1, §2

TrkB [5] = biological target: T2, TrkB; test: Immunoblotting of TrkB phosphorylation in primary cortical neurons treated with catecholamines; type: cell-based; details: cortical neurons
Procedure: Primary cultured rat cortical neurons were prepared as follows. E17 rat pups were decapitated and cortex was extirpated, cross chopped and suspended by pipetting for separation in 5% fetal calf serum (FCS), 5% horse serum (HS) DMEM. The cell suspension was then centrifuged at 250×g for 5 min. This operation was repeated. Cells were seeded into polyethyleneimine-coated 10 cm^2 dishes and 12-well plates including coated-coverslips and incubated at 37° C. in 5% CO2/95% air. After 3 hours, the culture medium was changed to Neurobasal containing B-27 supplement (Invitrogen; Carlsbad, Calif.) and incubated for 4 days. For maintenance, half of the culture medium was changed to fresh Neurobasal/B27 in every 4 days. After 1 week, the dished cultured neurons were ready for use.
To explore whether monoamine neurotransmitters, including catecholamines (see, e.g., FIG. 1), could stimulate TrkB activation, hippocampal neurons were treated with 300 nM of catecholamines, serotonin, and melatonin for 30 min.

TrkB [6] = biological target: TrkB (Homo sapiens, UniProt Q16620); test: Activation of transfected TrkB in HEK293 cells with or without DAT or NET; type: cell-based; set-up: expressed in transfected cells; host or cells: HEK293; details: NET transfected HEK293 cells
Chain of TrkB (Homo sapiens, UniProt Q16620) (Q16620 32-822, species assumed): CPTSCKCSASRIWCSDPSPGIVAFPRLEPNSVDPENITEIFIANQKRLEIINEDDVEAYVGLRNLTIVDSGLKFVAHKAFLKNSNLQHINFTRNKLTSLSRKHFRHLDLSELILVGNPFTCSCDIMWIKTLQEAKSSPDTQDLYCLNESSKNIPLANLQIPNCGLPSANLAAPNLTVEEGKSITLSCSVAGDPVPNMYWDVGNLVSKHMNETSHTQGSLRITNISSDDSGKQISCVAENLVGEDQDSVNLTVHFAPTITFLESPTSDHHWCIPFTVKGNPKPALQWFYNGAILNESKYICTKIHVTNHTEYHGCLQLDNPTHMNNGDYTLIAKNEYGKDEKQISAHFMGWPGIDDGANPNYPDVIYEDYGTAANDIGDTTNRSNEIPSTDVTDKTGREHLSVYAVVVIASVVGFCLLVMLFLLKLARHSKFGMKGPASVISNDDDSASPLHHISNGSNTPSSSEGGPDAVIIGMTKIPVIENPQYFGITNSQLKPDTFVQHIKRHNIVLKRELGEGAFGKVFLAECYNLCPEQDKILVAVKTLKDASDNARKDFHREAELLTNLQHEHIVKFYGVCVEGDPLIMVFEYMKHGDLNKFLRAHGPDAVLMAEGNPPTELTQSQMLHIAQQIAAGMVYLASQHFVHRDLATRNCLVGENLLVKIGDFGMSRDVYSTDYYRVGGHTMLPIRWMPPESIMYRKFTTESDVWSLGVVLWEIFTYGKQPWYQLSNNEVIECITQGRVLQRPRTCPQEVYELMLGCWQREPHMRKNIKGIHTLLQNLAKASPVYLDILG

[7] = system: TrkB F616A cortical neurons; test: Glutamate-provoked apoptosis of TrkB F616A cortical neurons (TUNEL assay); type: cell-based, mice; details: 50 mM glutamate overnight
Procedure: Norepinephrine has neuroprotective activity against oxidative stress-induced neuronal apoptosis. To investigate whether this protective action by norepinephrine is mediated through TrkB, apoptosis of TrkB F616A cortical neurons was monitored. Primary cortical neurons were pretreated with inhibitors K252a or 1NMPP1 followed by overnight treatment with 50 mM glutamate.

TrkB [8] = biological target: T2, TrkB; test: TrkB activation in cortical neurons after pretreatment with antibodies, receptor antagonists, transporter inhibitors or EDTA (anti-p-TrkB-Y-816 immunoblot); type: cell-based
Excerpt: Both antidepressants and exercise increase hippocampal BDNF mRNA expression through enhanced 5-HT and/or NE neurotransmission (Siuciak et al., Pharmacol. Biochem. Behav., 56:131-137, 1997; Dias et al., Neuropharmacology, 45:553-563, 2003; Ivy et al., Pharmacol. Biochem. Behav., 75:81-88, 2003; Garza et al., Pharmacol. Biochem. Behav., 77:209-220, 2004). If catecholamines activated TrkB signaling indirectly by promoting BDNF generation, then scavenging BDNF with its specific antibody would be expected to diminish catecholamines-mediated activation of TrkB. Cultured cortical neurons were pretreated with BDNF-IgG for 30 minutes followed by exposure to BDNF (10 ng/ml) or catecholamines (100 nM) for 15 minutes. […] It was then determined whether catecholamines could activate TrkB in neurons cultured from mice carrying a null mutation of BDNF.
To further investigate the specificity of catecholamines in inducing TrkB activation, cortical neurons were pretreated with control IgG or norepinephrine IgG, a rabbit polyclonal antibody for norepinephrine, followed by catecholamines.
(§3) It was then determined whether catecholamines could activate TrkB in neurons cultured from mice carrying a null mutation of NET.
(§4) The cell lysates were analyzed by immunoblotting with anti-p-TrkB-Y-816.
as §4
A group of primary cortical neurons were pretreated with 1 mM EDTA, and another group of primary cortical neurons were not pretreated. Both groups of primary cortical neurons were then treated with either Zn (100 μM) or a catecholamine (100 nM) for 15 minutes. The neuronal cell lysates were analyzed by immunoblotting with anti-p-TrkB-Y-816 antibody.

[9] = biological target: T4, TrkB intracellular domain (ICD) (Homo sapiens, UniProt Q16620); test: In vitro binding assay with purified TrkB ICD and 3H-ligands (Scatchard plot); details: purified protein, 25° C., 30 minutes; read-out: TrkB binding constants (Scatchard plot)
T4 construct: purified ECD (extracellular domain) and ICD (intracellular domain) proteins from Trk receptors
T4 sequence (Q16620 455-822 limits assumed): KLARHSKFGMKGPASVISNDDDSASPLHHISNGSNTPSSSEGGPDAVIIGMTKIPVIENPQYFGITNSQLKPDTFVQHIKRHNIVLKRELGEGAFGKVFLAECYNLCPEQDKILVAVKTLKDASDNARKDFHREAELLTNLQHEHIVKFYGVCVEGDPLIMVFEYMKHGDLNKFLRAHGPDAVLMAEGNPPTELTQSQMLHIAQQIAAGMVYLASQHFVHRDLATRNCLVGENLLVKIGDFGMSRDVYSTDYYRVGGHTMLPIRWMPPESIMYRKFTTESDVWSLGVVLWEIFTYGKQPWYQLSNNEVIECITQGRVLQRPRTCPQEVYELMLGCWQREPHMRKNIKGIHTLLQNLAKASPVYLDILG
Procedure: Purified TrkA and TrkB ECD or ICD proteins were incubated with different ^3H-catecholamines at 25° C. for 30 minutes in 1 ml of binding buffer (50 mM Tris-HCl, pH 7.4, 100 mM NaCl, 5 nM ^3H-catecholamines (32000 cpm)). After the incubation, the reaction mixture was loaded on a Whatman glass-fiber filter (GF-B) (Whatman Inc.; Piscataway, N.J.). The mixture was washed with 3×5 ml washing buffer (50 mM Tris-HCl, pH 7.4). The dried filter paper was put into a small vial and subjected to liquid scintillation counter analysis. The value of the dissociate constant and the number of sites were obtained from Scatchard plots by using the equation r/[L]free =n/Kd−r/Kd, where r is the ratio of the concentration of bound ligand to the total protein concentration and n is the number of binding sites.
To determine whether catecholamines bind TrkB directly, an in vitro binding assay was conducted with purified ECD (extracellular domain) and ICD (intracellular domain) proteins from Trk receptors and ^3H-catecholamines. […] To determine whether the binding by catecholamines to TrkB receptor caused dimerization, GST-TrkB was co-transfected into HEK293 cells with HA-TrkB, followed by BDNF or monoamines treatment for 15 minutes.

TrkB [10] = biological target: T5, TrkB (Mus musculus, UniProt P15209); type: cell-based, mice; details: compared to wild-type control neurons
T5 construct: endogenous in cells; host or cells: primary cortical neurons from BDNF-null, TrkB +/- cross, TrkC knockout and NET -/- mice
T5 sequence (P15209 32-821): as the sequence (P15209 32-821 F616A) above, with A585F counted along it
Procedure: as §3

Row | SMILES | Swimming immobility (mice) | Immobility time after 1NMPP1 treatment (mice) | TrkB activation by the compound after K252a or 1NMPP1 pretreatment (TrkB F616A [1]) | Kainic acid (KA)-provoked neuronal cell death in mouse brain (TrkB F616A knockin mice) | TrkB activation in primary cortical neurons (TrkB [2]) | Time at which TrkB activity peaked (TrkB [3]) [h] | TrkB activation in the brains of the mice (TrkB [3]) | Oral bioavailability (TrkB [3]) | Passage through the blood brain barrier (TrkB [3]; mouse, in vivo, po) | Minimal dosage required to activate TrkB (TrkB [3]) [mg/kg] | TrkB activation in mouse brains (TrkB [3]) | Passage through the blood brain barrier (TrkB [3]; orally administered, mouse brain) | Effect of inhibitor on catecholamine-induced TrkB activation (TrkB F616A [4]) | Effect of K252a pretreatment on catecholamine-triggered TrkB tyrosine phosphorylation (TrkB [5]) | Increase of stimulatory activity by overexpression of NET compared to control cells (TrkB [6]) | Glutamate-provoked neuronal cell death [7] | Effect of norepinephrine IgG on the agonistic effect of the substance on TrkB activation (TrkB [8]; IgG 15 min, then 300 nM catecholamines 15 min) | Effect of norepinephrine IgG on the agonistic effect of the substance (TrkB [8]; compared to control IgG) | Kd [9] [µM] | TrkB activation in NET -/- neurons (TrkB [10])
1 | CN(C)CC(=O)c1ccc(O)c(O)c1 [Compound I-8, α-dimethylamino-3′,4′-dihydroxyacetophenone] | significantly decreased | no significant effect | selectively blocked by 1NMPP1 but not K252a | potently suppress; also recorded: robustly repressed | prominently activated TrkB; also recorded: prominent stimulatory effect | 8 | potently activated TrkB | orally bio-available | can pass through the blood brain barrier | 20 | potently activate TrkB |  |  |  |  |  |  |  |  | 
2 | CC(N)C(=O)c1ccc(O)c(O)c1 (stereo not drawn) [Compound I-11, 2-amino-3′,4′-dihydroxy-propiophenone] | significantly decreased | still active in decreasing immobility | selectively blocked by 1NMPP1 but not K252a | potently suppress; also recorded: robustly repressed | prominently activated TrkB; also recorded: prominent stimulatory effect | 8 | potently activated TrkB | orally bio-available |  | 10 | potently activate TrkB | can pass through the blood brain barrier |  |  |  |  |  |  |  | 
3 | COC(=O)[C@@]1(O)C[C@H]2O[C@]1(C)n1c3ccccc3c3c4c(c5c6ccccc6n2c5c31)C(=O)NC4 [Compound K252a] |  |  |  |  |  |  |  |  |  |  |  |  | robustly inhibited | robustly blocked |  |  |  |  |  | 
4 | NC[C@H](O)c1ccc(O)c(O)c1 [norepinephrine] |  |  |  |  |  |  |  |  |  |  |  |  |  |  | approximately 100 fold | robustly suppressed | selectively inhibited | selectively neutralized | 98 | completely blocked
